Laboratory results reported in BindingDB's records for doi:10.1021/jm0003440 (Merck Frosst Centre For Therapeutic Research, 2001).

Assay: Inhibitory activity tested against Human Cathepsin K receptor using bone resorption assay

N#CN1CCC(NC(=O)OCc2ccccc2)C1 (stereo unspecified) [(1-Cyano-pyrrolidin-3-yl)-carbamic acid benzyl ester]
IC50: 1410 nM
